Test results taken from the NIST ThermoML archive (doi:10.1021/je800727f).
Numbers after ± are expanded uncertainties.

Conditions: for viscosity / mass density: 101.33 kPa, Liquid; for viscosity: dissipative quartz crystal microbalance from KSV (QCMZ500)

SMILES: C[n+]1ccn(CCO)c1.F[B-](F)(F)F [1-(2-hydroxyethyl)-3-methylimidazolium tetrafluoroborate]
- viscosity (293.15 K): 1554 ± 270 mPa·s
- mass density (298.15 K): 1308 ± 4.1 kg/m3
- viscosity (298.15 K): 974 ± 170 mPa·s
- mass density (303.15 K): 1304.7 ± 4 kg/m3
- mass density (308.15 K): 1301.4 ± 4 kg/m3
- viscosity (308.15 K): 477 ± 83 mPa·s
- mass density (313.15 K): 1296.1 ± 4 kg/m3
- mass density (318.15 K): 1294.7 ± 4 kg/m3
- viscosity (318.15 K): 257 ± 45 mPa·s
- mass density (323.15 K): 1291.5 ± 4 kg/m3
- mass density (328.15 K): 1288.3 ± 4 kg/m3
- viscosity (328.15 K): 156 ± 14 mPa·s
- surface tension liquid-gas (572 K): 64.7 ± 2.4 mN/m
- surface tension liquid-gas (577.78 K): 64.6 ± 2.4 mN/m
- surface tension liquid-gas (587.55 K): 64 ± 2.4 mN/m
- surface tension liquid-gas (597.81 K): 63.5 ± 2.4 mN/m
- surface tension liquid-gas (607.58 K): 62.7 ± 2.3 mN/m
- surface tension liquid-gas (626.51 K): 61.7 ± 2.3 mN/m
- surface tension liquid-gas (645.35 K): 59.9 ± 2.2 mN/m
- surface tension liquid-gas (665.48 K): 59.1 ± 2.2 mN/m
- surface tension liquid-gas (684.42 K): 57.5 ± 2.2 mN/m
- surface tension liquid-gas (703.95 K): 56.4 ± 2.1 mN/m
- surface tension liquid-gas (725.28 K): 55.4 ± 2.1 mN/m
- surface tension liquid-gas (743.71 K): 53.6 ± 2 mN/m

SMILES: CCCCCCCC[n+]1ccn(C)c1.F[B-](F)(F)F [1-methyl-3-octylimidazolium tetrafluoroborate]
- viscosity (293.15 K): 413 ± 71 mPa·s
- mass density (298.15 K): 1100.5 ± 3.3 kg/m3
- viscosity (298.15 K): 325 ± 57 mPa·s
- mass density (308.15 K): 1093.7 ± 3.2 kg/m3
- viscosity (308.15 K): 205 ± 35 mPa·s
- mass density (318.15 K): 1087.1 ± 3.2 kg/m3
- viscosity (318.15 K): 129 ± 12 mPa·s
- mass density (328.15 K): 1080.5 ± 3.2 kg/m3
- viscosity (328.15 K): 86 ± 7 mPa·s
- surface tension liquid-gas (570.95 K): 32.7 ± 1.4 mN/m
- surface tension liquid-gas (586.35 K): 32.4 ± 1.4 mN/m
- surface tension liquid-gas (606.62 K): 31.3 ± 1.3 mN/m
- surface tension liquid-gas (625.26 K): 30.2 ± 1.3 mN/m
- surface tension liquid-gas (646.29 K): 28.1 ± 1.2 mN/m
- surface tension liquid-gas (665.98 K): 27.7 ± 1.2 mN/m
- surface tension liquid-gas (685.41 K): 27.2 ± 1.2 mN/m
- surface tension liquid-gas (704.75 K): 25.3 ± 1.1 mN/m
- surface tension liquid-gas (724.78 K): 24.5 ± 1.1 mN/m
- surface tension liquid-gas (743.71 K): 23.7 ± 1.1 mN/m
